Measured values taken from patent US4470971A, “Renin inhibitory peptides having His^13” (Merck & Co., Inc., priority 1982, dated 1984).
Where a SMILES comes first, the peptide text is derived from it. [ ]: non-standard residue; d: D form. The star is where a group is joined. Sta = CC(C)C[C@H](N)[C@@H](O)CC(=O)O; Isovaleryl = CC(C)CC(=O)*; Isobutyryl = CC(C)C(=O)*

Target: T1, Human renin (Homo sapiens, UniProt P00797)
T1 construct: Human plasma (lyophilized) was used as the source of human substrate and human renin; from tissue; host or cells: human plasma (lyophilized)
T1 sequence (P00797 67-406): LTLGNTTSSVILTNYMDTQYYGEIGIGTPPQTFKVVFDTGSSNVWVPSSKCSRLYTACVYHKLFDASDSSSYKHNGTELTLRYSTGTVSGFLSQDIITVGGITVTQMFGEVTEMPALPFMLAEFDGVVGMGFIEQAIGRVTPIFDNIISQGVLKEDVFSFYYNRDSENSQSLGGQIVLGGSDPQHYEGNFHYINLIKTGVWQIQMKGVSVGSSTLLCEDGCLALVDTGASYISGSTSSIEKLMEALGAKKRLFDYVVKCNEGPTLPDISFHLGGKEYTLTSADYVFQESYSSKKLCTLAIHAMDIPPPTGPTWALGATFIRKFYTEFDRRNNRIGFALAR
Assay: human renin assay, radioimmunoassay of angiotensin I in human plasma (Haber et al.)
Format: biochemical
Conditions: for IC50: lyophilized human plasma as source of human substrate and human renin, read-out: I50 (M) Human renin
Protocol: In order to illustrate the pig renin inhibition and human renin inhibition of the peptide inhibitor of Example 1, the peptide was evaluated in the pig renin inhibition assay described in Rich et al., J. Med. Chem. 23:27, 1980, and was further evaluated in the human renin assay based on the method of Haber et al., J. Clin. Endocrinol. 29:1349, 1969. The latter method employs a radioimmunoassay technique to measure the amount of angiotensin I product created by renin cleavage of its substrate. Human plasma (lyophilized) was used as the source of human substrate and human renin. I50 values were obtained by plotting data at several inhibitor concentrations.

| IC50 | inhibition at 1 µM (at 1.0 × 10^-6 M) | Structure (SMILES) |
| --- | --- | --- |
| 7.3e-08 M |  | CC(C)C[C@H](NC(=O)[C@H](Cc1c[nH]cn1)NC(=O)[C@H](Cc1ccccc1)NC(=O)[C@@H]1CCCN1C(=O)[C@H](Cc1c[nH]cn1)NC(=O)C(C)C)[C@@H](O)CC(=O)N[C@H](C(=O)N[C@@H](Cc1c[nH]cn1)C(=O)NCC(N)=O)C(C)C [N-Isobutyryl-L-histidyl-L-prolyl-L-phenylalanyl-L-histidyl-(3S,4S)-statyl-L-valyl-L-histidyl-L-glycyl amide] (Isobutyryl-HPFH[Sta]VHG-NH2) |
|  | 20% | CC(C)CC(=O)N[C@H](C(=O)N[C@H](C(=O)N[C@@H](CC(C)C)[C@@H](O)CC(=O)N[C@@H](C)C(=O)N[C@@H](CC(C)C)[C@@H](O)CC(=O)O)C(C)C)C(C)C [Pepstatin, iso-valeryl-Val--Val--Sta--Ala--Sta, reference compound] (Isovaleryl-VV[Sta]A[Sta]-OH) |
| 7.3e-09 M |  | CC[C@H](C)[C@H](NC(=O)C[C@H](O)[C@H](CC(C)C)NC(=O)[C@H](Cc1c[nH]cn1)NC(=O)[C@H](Cc1ccccc1)NC(=O)[C@@H]1CCCN1C(=O)[C@H](Cc1c[nH]cn1)NC(=O)CC(C)C)C(=O)N[C@@H](Cc1c[nH]cn1)C(N)=O [iso-Valeryl-His-Pro-Phe-His-Sta-Ile-His-NH2] (Isovaleryl-HPFH[Sta]IH-NH2) |
